Source: PMC8003416, “Modulation of Human Phenylalanine Hydroxylase by 3-Hydroxyquinolin-2(1H)-One Derivatives” (Biomolecules, 2021)
Values belong to the molecule of their own block, whether it stands above or below them.

Tests used:
[1] = target: T1, human phenylalanine hydroxylase (hPAH) (Homo sapiens, UniProt P00439); test: hPAH enzymatic activity assay (NA, 3HQ-A and Phe/3HQ-A conditions); format: biochemical; conditions: 100 μM compound; for hPAH activity vs respective control: all three conditions (NA, 3HQ-A, Phe/3HQ-A); for fold activation by L-Phe (Phe/3HQ-A vs. 3HQ-A): 100 μM L-Phe
T1 construct: Recombinant full-length wild-type (WT) hPAH was expressed in E. coli Top10 cells in fusion with a hexa-histidyl peptide; made in house; host or cells: E. coli Top10
T1 sequence (P00439 1-452): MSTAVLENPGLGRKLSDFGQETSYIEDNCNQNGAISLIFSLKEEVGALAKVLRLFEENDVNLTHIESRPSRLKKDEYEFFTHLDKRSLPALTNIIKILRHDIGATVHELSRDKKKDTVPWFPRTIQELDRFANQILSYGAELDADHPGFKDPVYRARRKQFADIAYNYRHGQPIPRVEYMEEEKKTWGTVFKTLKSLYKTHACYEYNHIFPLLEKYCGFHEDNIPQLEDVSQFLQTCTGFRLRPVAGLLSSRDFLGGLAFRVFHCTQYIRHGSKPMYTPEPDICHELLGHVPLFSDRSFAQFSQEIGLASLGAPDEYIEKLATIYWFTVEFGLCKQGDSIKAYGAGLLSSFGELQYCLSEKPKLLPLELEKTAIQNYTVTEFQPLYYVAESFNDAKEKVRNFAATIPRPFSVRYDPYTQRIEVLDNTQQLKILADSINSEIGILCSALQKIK
Experimental: The hPAH activity was measured essentially as previously described. Briefly, the enzymatic reaction was performed in a 200 μL final volume, containing 250 mM Na-HEPES, pH 7, 0.1 mg/mL catalase (Sigma-Aldrich; St. Louis, MO, USA), 5 μg (final concentration of 0.112 μM of tetramer) of recombinant hPAH tetramers and 100 μM (NH4)2Fe(II)SO4. Using 100 μM L-Phe and 100 μM of tested compound, three experimental conditions were used to study the compounds’ modulatory effect, namely: non activated (NA), 3HQ-activated (3HQ-A) and substrate/3HQ-activated (Phe/3HQ-A) (Supplementary Figure S3). The reaction was started by addition of 75 μM BH4 (Schircks Laboratories; Bauma, Switzerland) prepared in 5 mM ascorbic acid. In the NA assay, the L-Phe substrate and tested compounds were added together with 75 µM BH4 at the start of the hydroxylation reaction. In the 3HQ-A condition, hPAH was pre-incubated with the tested compound for 4 min at 25 °C and the reaction was started by the addition of BH4 together with L-Phe. In the Phe/3HQ-A condition, hPAH was pre-incubated simultaneously with L-Phe and the tested compound (4 min, 25 °C). Appropriate control reactions were performed where the compounds were omitted and 1% DMSO was used. Kinetic parameters were determined using variable concentrations of L-Phe (25 to 2500 μM) and fixed concentrations of BH4 (75 μM) and tested compound (100 μM). After a 1-min incubation, the reaction was stopped, and the amount of L-Tyr produced was quantified by HPLC as previously described. The specific hPAH enzymatic activity is expressed as nmol of L-Tyr produced during 1 min per mg of protein (nmol L-Tyr.min^−1.mg^−1). The steady-state kinetic data were analyzed by nonlinear regression analysis using GraphPad Prism (La Jolla, CA, USA). Data was fitted to the modified Hill equation accounting for cooperative substrate binding as well as substrate inhibition (Equation (1)), to the modified Michaelis–Menten equation which accounts for substrate inhibition (Equation (2)) and to the non-modified Michaelis–Menten equation:v = (Vmax + Vi ([S]^x/Ki^x))/(1 + (K^h/[S]^h) + ([S]^x/Ki^x))(1) v = (Vmax [S])/(Km + [S](1 + [S]/Ki))(2)

[2] = target: T1, human phenylalanine hydroxylase (hPAH); test: Differential scanning fluorimetry (thermal denaturation); format: binding; conditions: for Tm1 (regulatory domain) / Tm2 (catalytic domain): 100 μM compound in 1% DMSO; for Tm1 (regulatory domain): control 43.4 ± 0.6; for Tm2 (catalytic domain): control 53.5 ± 0.4; for ΔTm1 (regulatory domain) / ΔTm2 (catalytic domain): 100 μM compound vs 1% DMSO control, * S.D. < 0.01; for effect on thermal stability of regulatory and catalytic domains (|ΔTm| ≥ 2 °C): 100 μM compound
Experimental: Thermal denaturation profiles of recombinant hPAH were obtained by differential scanning fluorimetry (DSF) in a C1000 Touch thermal cycler equipped with a CFX96 optical reaction module (Bio-Rad; Hercules, CA, USA) as previously described. Briefly, DSF assays (n = 3) were performed using 100 μg/mL hPAH tetramers (final concentration of 0.45 μM of tetramer), SYPRO Orange (5000-fold commercially available stock solution; Invitrogen; Carlsbad, CA, USA) at a 2.5-x final concentration and ramping the temperature from 20 to 90 °C, at 1 °C/min. Fluorescence data were acquired using the FRET channel. Data were processed using CFX Manager Software V3.0 (Bio-Rad) and the GraphPad Prism. Temperature scan curves were fitted to a biphasic dose–response function and the Tm values were obtained from the midpoint of the first (Tm1) and second transitions (Tm2) corresponding, respectively, to the thermal denaturation of the regulatory and catalytic domains. The Tm values in the presence of 3HQ were compared to those obtained in the presence of 1% DMSO (vehicle control) and a change in the Tm was considered significant when the |ΔTm| ≥ 2 °C [22].

[3] = target: hPAH; design: method as in PMID 9843368; conditions: ref [36]; read-out: KD (high affinity binding to hPAH); cited from earlier work
[4] = target: the molecule itself; test: SEC; HiLoad Superdex 200 HR column (1.6 x 60 cm), 20 mM Na-HEPES, 200 mM NaCl, pH 7.0, 0.7 mL/min, 4 °C; preparative isolation of the oligomeric form after affinity purification

Molecule: CCOC(=O)[C@H](Cc1ccccc1)NC(=O)c1c(O)c(=O)[nH]c2ccccc12 [Compound 1]
hPAH activity vs respective control [1]: high decreases in enzyme activity | Tm1 (regulatory domain) [2]: 39.4 ± 1.0 °C | Tm2 (catalytic domain) [2]: 55.9 ± 0.2 °C | ΔTm1 (regulatory domain) [2]: -3.9 ± 0.10 °C | ΔTm2 (catalytic domain) [2]: +2.4 ± 0.01 °C

Molecule: CCOC(=O)[C@H](Cc1ccccc1)NC(=O)c1c(O)c(=O)[nH]c2ccc(Cl)cc12 [Compound 2]
hPAH activity vs respective control [1]: high decreases in enzyme activity | effect on thermal stability of regulatory and catalytic domains (|ΔTm| ≥ 2 °C) [2]: destabilized the regulatory and catalytic domains | Tm1 (regulatory domain) [2]: 35.6 ± 0.2 °C | Tm2 (catalytic domain) [2]: 43.0 ± 0.4 °C | ΔTm1 (regulatory domain) [2]: -7.8 ± 0.04 °C | ΔTm2 (catalytic domain) [2]: -10.5 ± 0.11 °C

Molecule: CCOC(=O)[C@H](Cc1ccccc1)NC(=O)c1c(O)c(=O)n(Cc2ccccc2)c2ccc(OC(F)(F)F)cc12 [Compound 4]
hPAH activity vs respective control [1]: high decreases in enzyme activity | effect on thermal stability of regulatory and catalytic domains (|ΔTm| ≥ 2 °C) [2]: destabilized the regulatory and catalytic domains | Tm1 (regulatory domain) [2]: 37.8 ± 1.9 °C | Tm2 (catalytic domain) [2]: 42.7 ± 0.3 °C | ΔTm1 (regulatory domain) [2]: -5.6 ± 0.28 °C | ΔTm2 (catalytic domain) [2]: -10.8 ± 0.08 °C

Molecule: COC(=O)[C@H](CC(C)C)NC(=O)c1c(O)c(=O)[nH]c2ccc(OC(F)(F)F)cc12 [Compound 10]
fold enzyme activation by compound (3HQ-A vs. NA) [1]: 0.9 fold | fold activation by L-Phe (Phe/3HQ-A vs. 3HQ-A) [1]: 1.4 fold | remaining activity at 100 µM ([1]; NA (non-activated) condition, read-out: hPAH residual activity vs control): 68% | Tm1 (regulatory domain) [2]: 43.1 ± 0.5 °C | Tm2 (catalytic domain) [2]: 53.4 ± 0.2 °C | ΔTm1 (regulatory domain) [2]: -0.3 ± 0.01 °C

Molecule: CCOC(=O)CNC(=O)c1c(O)c(=O)n(Cc2ccccc2)c2ccccc12 [Compound 13]
fold enzyme activation by compound (3HQ-A vs. NA) [1]: decreased enzyme activity | Tm1 (regulatory domain) [2]: 44.6 ± 0.4 °C | Tm2 (catalytic domain) [2]: 53.5 ± 0.1 °C | ΔTm1 (regulatory domain) [2]: +1.2 ± 0.01 °C | ΔTm2 (catalytic domain) [2]: +0.1 ± 0.01 °C

Molecule: O=C(NCc1ccccc1)c1c(O)c(=O)n(Cc2ccccc2)c2ccccc12 [Compound 14]
fold activation by L-Phe (Phe/3HQ-A vs. 3HQ-A) [1]: did not allow substrate activation | Tm1 (regulatory domain) [2]: 44.8 ± 0.1 °C | Tm2 (catalytic domain) [2]: 53.5 ± 0.1 °C | ΔTm1 (regulatory domain) [2]: +1.4 ± 0.01 °C | ΔTm2 (catalytic domain) [2]: +0.1 ± 0.01 °C

Molecule: O=C(c1c(O)c(=O)[nH]c2ccc(OC(F)(F)F)cc12)N1CCCC1 [Compound 15]
Tm1 (regulatory domain) [2]: 44.5 ± 0.8 °C | Tm2 (catalytic domain) [2]: 53.3 ± 0.3 °C | ΔTm1 (regulatory domain) [2]: +1.1 ± 0.02 °C | ΔTm2 (catalytic domain) [2]: -0.2 ± 0.01 °C

Molecule: O=C(c1c(O)c(=O)[nH]c2ccc(OC(F)(F)F)cc12)N1CCCCC1 [Compound 16]
Tm1 (regulatory domain) [2]: 45.0 ± 1.9 °C | Tm2 (catalytic domain) [2]: 53.2 ± 0.8 °C | ΔTm1 (regulatory domain) [2]: +1.7 ± 0.07 °C | ΔTm2 (catalytic domain) [2]: -0.3 ± 0.01 °C

Molecule: CC(C)(C)OC(=O)c1c(O)c(=O)[nH]c2ccc(OC(F)(F)F)cc12 [Compound 17]
Tm1 (regulatory domain) [2]: 44.6 ± 0.2 °C | Tm2 (catalytic domain) [2]: 53.7 ± 0.2 °C | ΔTm1 (regulatory domain) [2]: +1.2 ± 0.01 °C | ΔTm2 (catalytic domain) [2]: +0.2 ± 0.01 °C

Molecule: CNC[C@H](O)c1ccc(O)c(O)c1 [adrenaline]
Kd [3]: < 1000 nM

Molecule: NCCc1ccc(O)c(O)c1 [dopamine]
Kd [3]: < 1000 nM

Molecule: NC[C@H](O)c1ccc(O)c(O)c1 [noradrenaline]
Kd [3]: < 1000 nM

B1: Recombinant full-length wild-type human phenylalanine hydroxylase (enzyme, UniProt P00439 1-452, looked up)
chain: T1 sequence (P00439 1-452)
notes: human phenylalanine hydroxylase (hPAH; EC 1.14.16.1), full-length wild type, expressed in fusion with a hexa-histidyl peptide; It gives a subunit mass of 55 kDa and an expected tetramer mass of 223 kDa; Non-heme iron sits in the catalytic site; also called hPAH; PAH; source: E. coli Top10, purified (IMAC on Ni-NTA agarose, then SEC to isolate tetramers)
stoichiometry N [4]: 4

Second part, led by results:

Tm1 (regulatory domain) [2]: 38.7 ± 0.2 °C | Tm2 (catalytic domain) [2]: 42.3 ± 0.2 °C | ΔTm1 (regulatory domain) [2]: -4.7 ± 0.02 °C | ΔTm2 (catalytic domain) [2]: -11.2 ± 0.05 °C
Molecule: O=C(Nc1ccccc1)c1c(O)c(=O)[nH]c2ccc(OC(F)(F)F)cc12 [Compound 5]
effect on thermal stability of regulatory and catalytic domains (|ΔTm| ≥ 2 °C) [2]: destabilized the regulatory and catalytic domains

Tm1 (regulatory domain) [2]: 42.5 ± 0.2 °C | Tm2 (catalytic domain) [2]: 53.0 ± 0.1 °C | ΔTm1 (regulatory domain) [2]: -0.9 ± 0.01 °C | ΔTm2 (catalytic domain) [2]: -0.5 ± 0.01 °C
Molecule: O=C(NCc1ccccc1)c1c(O)c(=O)[nH]c2ccc(OC(F)(F)F)cc12 [Compound 6]

Tm1 (regulatory domain) [2]: 43.3 ± 0.1 °C | Tm2 (catalytic domain) [2]: 53.7 ± 0.1 °C | ΔTm2 (catalytic domain) [2]: +0.2 ± 0.01 °C
Molecule: CN(Cc1ccccc1)C(=O)c1c(O)c(=O)[nH]c2ccc(OC(F)(F)F)cc12 [Compound 7]

fold enzyme activation by compound (3HQ-A vs. NA) [1]: 0.6 fold | fold activation by L-Phe (Phe/3HQ-A vs. 3HQ-A) [1]: allowing substrate activation | Tm1 (regulatory domain) [2]: 43.8 ± 0.1 °C | Tm2 (catalytic domain) [2]: 53.1 ± 0.1 °C | ΔTm1 (regulatory domain) [2]: 0.4 ± 0.01 °C | ΔTm2 (catalytic domain) [2]: -0.4 ± 0.01 °C
Molecule: O=C(CNC(=O)c1c(O)c(=O)[nH]c2ccc(OC(F)(F)F)cc12)OCc1ccccc1 [Compound 12]

Tm1 (regulatory domain) [2]: 40.0 ± 1.0 °C | Tm2 (catalytic domain) [2]: 44.0 ± 1.4 °C | ΔTm2 (catalytic domain) [2]: -9.6 ± 0.31 °C
Molecule: CC(OC(=O)c1c(O)c(=O)[nH]c2ccc(OC(F)(F)F)cc12)c1ccccc1 (stereo not shown) [Compound 18]
effect on thermal stability of regulatory and catalytic domains (|ΔTm| ≥ 2 °C) [2]: destabilized the regulatory and catalytic domains

Tm1 (regulatory domain) [2]: 33.0 ± 0.3 °C | Tm2 (catalytic domain) [2]: 35.5 ± 0.1 °C | ΔTm1 (regulatory domain) [2]: -10.4 ± 0.09 °C
Molecule: CC(CCc1ccccc1)OC(=O)c1c(O)c(=O)[nH]c2ccc(OC(F)(F)F)cc12 (stereo not shown) [Compound 19]
effect on thermal stability of regulatory and catalytic domains (|ΔTm| ≥ 2 °C) [2]: destabilized the regulatory and catalytic domains

Tm1 (regulatory domain) [2]: 44.2 ± 0.1 °C | Tm2 (catalytic domain) [2]: 53.8 ± 0.1 °C | ΔTm1 (regulatory domain) [2]: +0.8± 0.01 °C | ΔTm2 (catalytic domain) [2]: +0.31± 0.01 °C
Molecule: O=C(c1ccccc1)c1c(O)c(=O)[nH]c2ccc(OC(F)(F)F)cc12 [Compound 20]
